Measurements taken from patent US7199099B2, “Methanobactin: a copper binding compound having antibiotic and antioxidant activity isolated from methanotrophic bacteria” (priority 2002, dated 2007).
Values after ≈ are worked out from the molar mass of the structure shown.

Columns and labels:
Micrococcus luteus X186 = type: cell-based
Candida albicans, X657 = assay: Antimicrobial activity, Candida albicans X657; type: cell-based; conditions: purified methanobactin
Escherichia coli, X161 = assay: Antimicrobial activity, Escherichia coli X161; type: cell-based; conditions: purified methanobactin
Protocol: (§1) Enterococcus fecalus was cultured aerobically on Brain Heart Infusion broth at 37° C., Staphyloccus aureus, Escherichia coli, X161, and Bacillus thuringiensis were cultured aerobically on Lauria-Burtani broth at 37° C., and Listeria monocytogenes was grown on Trypticase soy broth containing 0.6% yeast extract at 35° C. Minimum inhibitory concentrations were determined as previously described (A. F. Mendoca and S. J. Knabel. 1994. A novel strictly anaerobic recovery and enrichment system incorporating lithium for detection of heat-injured Listeria monocytogenes in pasteurized milk containing background microflora. Appl. Environ. Microbiol. 60: 4001–4008).

[1] = type: physicochemical
Text: Solution properties of the methanobactin varied with metal binding and pH.

gram-positive bacteria = assay: Bacteriocidal activity against gram-positive bacteria; type: cell-based, Staphylococci, Streptococci and Enterococci; conditions: including vancomycin resistant and methicillin-resistant strains
Protocol: as §1

gram-negative bacteria = assay: Activity against gram-negative bacteria; type: cell-based
washed cell suspensions = assay: Oxygen uptake activity of washed cell suspensions; type: cell-based
Protocol: Oxygen uptake activity of washed cell suspensions was determined with a Clark oxygen electrode maintained at a constant water temperature of 37° C. Cell samples containing methanobactin were preincubated 5 minutes at 37° C. before the addition of substrate.

Compound: CSCC[C@H](NC(=O)[C@@H]1CSSC[C@H](NC(=O)[C@H](CO)NC(=O)CN/C(S)=C2/N=C(C(=O)CC(C)C)OC2=O)C(=O)N[C@@H](Cc2ccc(O)cc2)C(=O)N2CCC[C@H]2C2=N/C(=C(\S)N[C@@H](CO)C(=O)N1)C(=O)O2)C(=O)O [methanobactin, N-2-isopropylester-(4-thionyl-5-hydroxy-imidazole)-Gly^1-Ser^2-Cys^3-Tyr^4-pyrrolidine-(4-thionyl-5-hydroxy-imidazole)-Ser^5-Cys^6-Met^7]
- MIC (Micrococcus luteus X186): 24 µg/mL (≈ 20.8 µM)
- Antimicrobial Activity (Candida albicans, X657): 0
- Antimicrobial Activity (Escherichia coli, X161): 0
- solubility [1]: very soluble
- bacteriocidal activity against gram-positive bacteria (gram-positive bacteria): bacteriocidal activity
- effectiveness against gram-negative bacteria (gram-negative bacteria; methanobactin by itself): not been found to be effective
- activity against gram negative bacteria in combination with a metal chelator (gram-negative bacteria; with EDTA, at least about 1:1 methanobactin to EDTA): bacteriocidal
- effect on respiration (washed cell suspensions; higher concentrations): respiratory inhibitor
- effect on respiration (washed cell suspensions; low concentrations): respiratory uncoupler
